Drawing on patent publication US8188077B2, “Apoptosis-inducing agents for the treatment of cancer and immune and autoimmune diseases” (Abbott Laboratories, priority 2010, dated 2012), this text covers Ki for 22 compounds.

The target in this assay is T1, Bcl-2 protein (Homo sapiens, UniProt P10415, DELINS35-91DVEENRTEAPEGTESE, form not given).
T1 construct: fused on or other part: Bcl-xL (Q07817) residues 29-44 stand in place of Bcl-2's own unstructured loop 35-91; The C-terminal membrane anchor (208-239) is absent
Put plainly: Bcl-2 fluorescence polarization assay (FPA) binding. As to conditions: 10 nM Bcl-2 protein, 1 nM fluorescein-labeled BAX peptide, room temperature, read-out: Bcl-2 FPA 11pt Ki. The gist of the method: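 Competitive fluorescence polarization with 10 nM Bcl-2 protein and 1 nM fluorescein-labeled BAX peptide in 20 mM phosphate pH 7.4, 1 mM EDTA, 0.05% PF-68. Compound dilutions in DMSO spanned […] to 10 pM; mix shaken 2 min, polarization read at room temperature (ex 485/em 530 nm); Ki values calculated.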
Background: In fluorescence polarisation assays a small probe gives low polarisation when free and higher when bound to something large.

T1 sequence (P10415 with tags, fused parts or gaps with the stated changes): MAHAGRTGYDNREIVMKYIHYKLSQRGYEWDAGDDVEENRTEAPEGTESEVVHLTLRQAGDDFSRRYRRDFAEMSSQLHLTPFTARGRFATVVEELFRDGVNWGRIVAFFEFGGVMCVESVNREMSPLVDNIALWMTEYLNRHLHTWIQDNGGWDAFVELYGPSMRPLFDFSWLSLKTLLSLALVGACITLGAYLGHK

In general, Ki refers to the equilibrium dissociation constant of an inhibitor or competing ligand from its target. `CC12CC3CC(C)(C1)CC(CN1CCN(c4ccc(C(=O)NS(=O)(=O)c5ccc(NCC6CCCCC6)c([N+](=O)[O-])c5)cc4)CC1)(C3)C2` [Example 13, N-({4-[(cyclohexylmethyl)amino]-3-nitrophenyl}sulfonyl)-4-(4-{[3,5-dimethyladamantan-1-yl]methyl}piperazin-1-yl)benzamide]: the Ki is 0.608 µM.
The result for `O=C(NS(=O)(=O)c1ccc(NCC2CCOCC2)c([N+](=O)[O-])c1)c1ccc(N2CCN(Cc3cc([N+](=O)[O-])ccc3N3CC4CCC(CC4)C3)CC2)cc1` [Example 22, 4-{4-[2-(3-azabicyclo[3.2.2]non-3-yl)-5-nitrobenzyl]piperazin-1-yl}-N-({3-nitro-4-[(tetrahydro-2H-pyran-4-ylmethyl)amino]phenyl}sulfonyl)benzamide] reads 0.0314 µM; that for `CC1(C)[C@H]2CC(CN3CCN(c4ccc(C(=O)NS(=O)(=O)c5ccc(NCC6CCCCC6)c([N+](=O)[O-])c5)cc4)CC3)=C(c3ccc(Cl)cc3)[C@@H]1C2` [Example 19, 4-(4-{[(1R,5R)-2-(4-chlorophenyl)-6,6-dimethylbicyclo[3.1.1]hept-2-en-3-yl]methyl}piperazin-1-yl)-N-({4-[(cyclohexylmethyl)amino]-3-nitrophenyl}sulfonyl)benzamide], 0.603 µM; that for `O=C(NS(=O)(=O)c1ccc(NC2CCOCC2)c([N+](=O)[O-])c1)c1ccc(N2CCN(C(=O)C3C4CC5CC(C4)CC3C5)CC2)cc1` (stereo not shown) [Example 42, 4-{4-[adamantan-2-ylcarbonyl]piperazin-1-yl}-N-{[3-nitro-4-(tetrahydro-2H-pyran-4-ylamino)phenyl]sulfonyl}benzamide], 2.48 µM.
For the compound `CC1(C)C2C=C(c3ccccc3CN3CCN(c4ccc(C(=O)NS(=O)(=O)c5ccc(NCC6CCOCC6)c([N+](=O)[O-])c5)cc4)CC3)C1(C(=O)O)CC2` (stereo not shown) [Example 39, 7,7-dimethyl-2-{2-[(4-{4-[({3-nitro-4-[(tetrahydro-2H-pyran-4-ylmethyl)amino]phenyl}sulfonyl)carbamoyl]phenyl}piperazin-1-yl)methyl]phenyl}bicyclo[2.2.1]hept-2-ene-1-carboxylic Acid], the Ki amounted to 2.91 µM.
As for `O=C(NS(=O)(=O)c1ccc(NCC2CCOCC2)c([N+](=O)[O-])c1)c1ccc(N2CCN(Cc3ccccc3C3=CC4CC5CC(C4)CC3C5)CC2)cc1` [Example 34, N-({3-nitro-4-[(tetrahydro-2H-pyran-4-ylmethyl)amino]phenyl}sulfonyl)-4-(4-{2-[tricyclo[4.3.1.1^3,8]undec-4-en-4-yl]benzyl}piperazin-1-yl)benzamide], the figure is 0.0477 µM; as for `O=C(NS(=O)(=O)c1ccc(NCC2CCOCC2)c([N+](=O)[O-])c1)c1ccc(N2CCC(=Cc3ccccc3-c3ccc(-c4nc(C56CC7CC(CC(C7)C5)C6)cs4)s3)CC2)cc1` [Example 74, 4-[4-(2-{5-[4-(adamantan-1-yl)-1,3-thiazol-2-yl]-2-thienyl}benzylidene)piperidin-1-yl]-N-({3-nitro-4-[(tetrahydro-2H-pyran-4-ylmethyl)amino]phenyl}sulfonyl)benzamide], 0.102 µM; as for `CC12CC3CC(Br)(C1)CC(CN1CCN(c4ccc(C(=O)NS(=O)(=O)c5ccc(NCC6CCCCC6)c([N+](=O)[O-])c5)cc4)CC1)(C3)C2` (stereo not shown) [Example 12, 4-(4-{[3-bromo-5-methyladamantan-1-yl]methyl}piperazin-1-yl)-N-({4-[(cyclohexylmethyl)amino]-3-nitrophenyl}sulfonyl)benzamide], 0.304 µM.
As for `O=C(NS(=O)(=O)c1ccc(NCC2CCOCC2)c([N+](=O)[O-])c1)c1ccc(N2CCN(Cc3ccccc3C(=C(c3ccccc3)c3ccccc3)c3ccccc3)CC2)cc1` [Example 65, N-({3-nitro-4-[(tetrahydro-2H-pyran-4-ylmethyl)amino]phenyl}sulfonyl)-4-{4-[2-(triphenylvinyl)benzyl]piperazin-1-yl}benzamide], the figure is 0.928 µM.
As for `C[C@@H]1[C@@H](Nc2cccc(-c3ccc(C(=O)NS(=O)(=O)c4ccc(NCC5CCCCC5)c([N+](=O)[O-])c4)cc3)c2)C[C@H]2C[C@@H]1C2(C)C` [Example 4, N-({4-[(cyclohexylmethyl)amino]-3-nitrophenyl}sulfonyl)-3′-{[(1S,2S,3S,5R)-2,6,6-trimethylbicyclo[3.1.1]hept-3-yl]amino}biphenyl-4-carboxamide], the figure is 0.191 µM.
Turning to `C[C@@H]1[C@@H](Nc2ccc(-c3ccc(C(=O)NS(=O)(=O)c4ccc(NCC5CCCCC5)c([N+](=O)[O-])c4)cc3)cc2)C[C@H]2C[C@@H]1C2(C)C` [Example 6, N-({4-[(cyclohexylmethyl)amino]-3-nitrophenyl}sulfonyl)-4′-{[(1S,2S,3S,5R)-2,6,6-trimethylbicyclo[3.1.1]hept-3-yl]amino}biphenyl-4-carboxamide], the Ki was 0.155 µM.
In the case of `CC1(C)[C@H]2CC[C@]1(CS(=O)(=O)NC(=O)c1ccc(N3CCN(Cc4ccccc4-c4ccc(Cl)cc4)CC3)cc1)C(=O)C2` [Example 57, 4-{4-[(4′-chlorobiphenyl-2-yl)methyl]piperazin-1-yl}-N-({[(1R,4S)-7,7-dimethyl-2-oxobicyclo[2.2.1]hept-1-yl]methyl}sulfonyl)benzamide], the Ki worked out at 0.134 µM.
Regarding `O=C(NS(=O)(=O)c1ccc(NCC2CCCCC2)c([N+](=O)[O-])c1)c1ccc(N2C[C@@H]3C[C@H]2CN3CC23CC4CC(CC(C4)C2)C3)cc1` [Example 11, 4-{(1S,4S)-5-[adamantan-1-ylmethyl]-2,5-diazabicyclo[2.2.1]hept-2-yl}-N-({4-[(cyclohexylmethyl)amino]-3-nitrophenyl}sulfonyl)benzamide], the Ki worked out at 1.3 µM.
As for `CC1(C)[C@H]2C=C(c3ccccc3CN3CCN(c4ccc(C(=O)NS(=O)(=O)c5ccc(NCC6CCOCC6)c([N+](=O)[O-])c5)cc4)CC3)[C@]1(C)CC2` [Example 15, N-({3-nitro-4-[(tetrahydro-2H-pyran-4-ylmethyl)amino]phenyl}sulfonyl)-4-(4-{2-[(1R,4R)-1,7,7-trimethylbicyclo[2.2.1]hept-2-en-2-yl]benzyl}piperazin-1-yl)benzamide], the figure is less than 0.02 µM; as for `O=C(NS(=O)(=O)c1ccc(NCC2CCOCC2)c([N+](=O)[O-])c1)c1ccc(N2CCN(Cc3ccccc3-c3cn(C45CC6CC(CC(C6)C4)C5)nc3C(=O)N(c3ccccc3)c3ccccc3)CC2)cc1` [Example 24, 1-[adamantan-1-yl]-4-{2-[(4-{4-[({3-nitro-4-[(tetrahydro-2H-pyran-4-ylmethyl)amino]phenyl}sulfonyl)carbamoyl]phenyl}piperazin-1-yl)methyl]phenyl}-N,N-diphenyl-1H-pyrazole-3-carboxamide], 2.27 µM.
As for `O=C(NS(=O)(=O)c1ccc(NCC2CCCCC2)c([N+](=O)[O-])c1)c1ccc(N2CCN(CC34CC5CC(CC(C5)C3)C4)CC2)cc1` [Example 47, 4-{4-[adamantan-1-ylmethyl]piperazin-1-yl}-N-({4-[(cyclohexylmethyl)amino]-3-nitrophenyl}sulfonyl)benzamide], the figure is 0.0669 µM; as for `O=C(NS(=O)(=O)c1ccc(NCC2CCOCC2)c([N+](=O)[O-])c1)c1ccc(N2CCN(Cc3ccccc3N(C(=O)CCc3ccccc3)C3CC4CC3C3CCCC43)CC2)cc1` (stereo not shown) [Example 70, N-({3-nitro-4-[(tetrahydro-2H-pyran-4-ylmethyl)amino]phenyl}sulfonyl)-4-(4-{2-[octahydro-1H-4,7-methanoinden-5-yl(3-phenylpropanoyl)amino]benzyl}piperazin-1-yl)benzamide], 0.0354 µM.
As for `CC1(C)[C@H]2C=C(c3ccccc3C=C3CCN(c4ccc(C(=O)NS(=O)(=O)c5ccc(NCC6CCOCC6)c([N+](=O)[O-])c5)cc4)CC3)[C@]1(C)CC2` [Example 61, N-({3-nitro-4-[(tetrahydro-2H-pyran-4-ylmethyl)amino]phenyl}sulfonyl)-4-(4-{2-[(1R,4R)-1,7,7-trimethylbicyclo[2.2.1]hept-2-en-2-yl]benzylidene}piperidin-1-yl)benzamide], the figure is less than 0.02 µM; as for `C[C@@H]1[C@@H](N(C(=O)CCc2ccccc2)C2CCN(c3ccc(C(=O)NS(=O)(=O)c4ccc(N[C@H](CCN5CCOCC5)CSc5ccccc5)c(S(=O)(=O)C(F)(F)F)c4)cc3)CC2)C[C@H]2C[C@@H]1C2(C)C` [Example 9, N-[(4-{[(2R)-4-(morpholin-4-yl)-1-(phenylthio)butan-2-yl]amino}-3-[(trifluoromethyl)sulfonyl]phenyl)sulfonyl]-4-(4-{(3-phenylpropanoyl)[(1S,2S,3S,5R)-2,6,6-trimethylbicyclo[3.1.1]hept-3-yl]amino}piperidin-1-yl)benzamide], less than 0.02 µM; as for `O=C(NS(=O)(=O)c1ccc(NC2CCOCC2)c([N+](=O)[O-])c1)c1ccc(NCC23CC4CC(CC(C4)C2)C3)cc1` [Example 82, 4-{[adamantan-1-ylmethyl]amino}-N-{[3-nitro-4-(tetrahydro-2H-pyran-4-ylamino)phenyl]sulfonyl}benzamide], 2.18 µM.
Regarding `O=C(NS(=O)(=O)c1ccc(NCC2CCCCC2)c([N+](=O)[O-])c1)c1ccc(N2CCC3CC2CN3CC23CC4CC(CC(C4)C2)C3)cc1` (stereo not shown) [Example 8, 4-{6-[adamantan-1-ylmethyl]-2,6-diazabicyclo[3.2.1]oct-2-yl}-N-({4-[(cyclohexylmethyl)amino]-3-nitrophenyl}sulfonyl)benzamide], the Ki is 0.0846 µM.
The result for `COc1cccc(OC)c1C(=O)c1sccc1-c1ccccc1C=C1CCN(c2ccc(C(=O)NS(=O)(=O)c3ccc(NCC4CCOCC4)c([N+](=O)[O-])c3)cc2)CC1` [Example 68, 4-(4-{2-[2-(2,6-dimethoxybenzoyl)-3-thienyl]benzylidene}piperidin-1-yl)-N-({3-nitro-4-[(tetrahydro-2H-pyran-4-ylmethyl)amino]phenyl}sulfonyl)benzamide] reads 0.0926 µM.
